Source: ChEMBL document CHEMBL4138123, “Design, synthesis and biological evaluation of novel pyrazolochalcones as potential modulators of PI3K/Akt/mTOR pathway and inducers of apoptosis in breast cancer cells” (Eur J Med Chem, 2017)

Legend:
Assay type in all cases: functional
[1] = tested on: RPMI-8226; assay: Cytotoxicity against human RPMI8226 cells assessed as growth inhibition after 48 hrs by sulforhodamine B assay; conditions: RPMI-8226, 48 h
[2] = tested on: SR; assay: Cytotoxicity against human SR cells assessed as growth inhibition after 48 hrs by sulforhodamine B assay; conditions: for CC50: read-out: LC50 (the source's name)
[3] = tested on: A549; assay: Cytotoxicity against human A549/ATCC cells assessed as growth inhibition after 48 hrs by sulforhodamine B assay; conditions: A549, 48 h
[4] = tested on: HCC 2998; assay: Cytotoxicity against human HCC2998 cells assessed as growth inhibition after 48 hrs by sulforhodamine B assay; conditions: HCC 2998, 48 h
[5] = tested on: SW-620; assay: Cytotoxicity against human SW620 cells assessed as growth inhibition after 48 hrs by sulforhodamine B assay; conditions: SW-620, 48 h
[6] = tested on: SNB-19; assay: Cytotoxicity against human SNB19 cells assessed as growth inhibition after 48 hrs by sulforhodamine B assay; conditions: SNB-19, 48 h
[7] = tested on: OVCAR-5; assay: Cytotoxicity against human OVCAR5 cells assessed as growth inhibition after 48 hrs by sulforhodamine B assay; conditions: OVCAR-5, 48 h
[8] = tested on: SK-OV-3; assay: Cytotoxicity against human SKOV3 cells assessed as growth inhibition after 48 hrs by sulforhodamine B assay; conditions: SK-OV-3, 48 h
[9] = tested on: A498; assay: Cytotoxicity against human A498 cells assessed as growth inhibition after 48 hrs by sulforhodamine B assay; conditions: A498, 48 h
[10] = tested on: ACHN; assay: Cytotoxicity against human ACHN cells assessed as cell growth at 0.01 uM after 48 hrs by sulforhodamine B assay relative to control; conditions: read-out: Activity
[11] = tested on: HCT-15; assay: Cytotoxicity against human HCT15 cells assessed as cell growth at 0.01 uM after 48 hrs by sulforhodamine B assay relative to control; conditions: HCT-15, 48 h, read-out: Activity
[12] = tested on: HCC 2998; assay: Cytotoxicity against human HCC2998 cells assessed as cell growth at 0.01 uM after 48 hrs by sulforhodamine B assay relative to control; conditions: HCC 2998, 48 h, read-out: Activity
[13] = tested on: NCI-H322M; assay: Cytotoxicity against human NCI-H322M cells assessed as cell growth at 0.01 uM after 48 hrs by sulforhodamine B assay relative to control; conditions: read-out: Activity
[14] = tested on: A549; assay: Cytotoxicity against human A549/ATCC cells assessed as cell growth at 0.01 uM after 48 hrs by sulforhodamine B assay relative to control; conditions: A549, 48 h, read-out: Activity
[15] = tested on: SN12C; assay: Cytotoxicity against human SN12C cells assessed as cell growth at 0.01 uM after 48 hrs by sulforhodamine B assay relative to control; conditions: read-out: Activity
[16] = tested on: MOLT-4; assay: Cytotoxicity against human MOLT4 cells assessed as cell growth at 0.1 uM after 48 hrs by sulforhodamine B assay relative to control; conditions: MOLT-4, 48 h, read-out: Activity
[17] = tested on: RPMI-8226; assay: Cytotoxicity against human RPMI8226 cells assessed as cell growth at 0.1 uM after 48 hrs by sulforhodamine B assay relative to control; conditions: RPMI-8226, 48 h, read-out: Activity
[18] = tested on: COLO 205; assay: Cytotoxicity against human COLO205 cells assessed as cell growth at 0.1 uM after 48 hrs by sulforhodamine B assay relative to control; conditions: COLO 205, 48 h, read-out: Activity
[19] = tested on: 786-0; assay: Cytotoxicity against human 786-0 cells assessed as cell growth at 0.1 uM after 48 hrs by sulforhodamine B assay relative to control; conditions: 786-0, 48 h, read-out: Activity
[20] = tested on: SN12C; assay: Cytotoxicity against human SN12C cells assessed as cell growth at 0.1 uM after 48 hrs by sulforhodamine B assay relative to control; conditions: read-out: Activity
[21] = tested on: Hs-578T; assay: Cytotoxicity against human Hs 578T cells assessed as cell growth at 0.1 uM after 48 hrs by sulforhodamine B assay relative to control; conditions: read-out: Activity
[22] = tested on: T47D; assay: Cytotoxicity against human T47D cells assessed as cell growth at 0.1 uM after 48 hrs by sulforhodamine B assay relative to control; conditions: read-out: Activity
[23] = tested on: K562; assay: Cytotoxicity against human K562 cells assessed as cell growth at 1 uM after 48 hrs by sulforhodamine B assay relative to control; conditions: K562, 48 h, read-out: Activity
[24] = tested on: A549; assay: Cytotoxicity against human A549/ATCC cells assessed as cell growth at 1 uM after 48 hrs by sulforhodamine B assay relative to control; conditions: A549, 48 h, read-out: Activity
[25] = tested on: HCT-116; assay: Cytotoxicity against human HCT116 cells assessed as cell growth at 1 uM after 48 hrs by sulforhodamine B assay relative to control; conditions: HCT-116, 48 h, read-out: Activity
[26] = tested on: U-251; assay: Cytotoxicity against human U251 cells assessed as cell growth at 1 uM after 48 hrs by sulforhodamine B assay relative to control; conditions: U-251, 48 h, read-out: Activity
[27] = tested on: MDA-MB-435; assay: Cytotoxicity against human MDA-MB-435 cells assessed as cell growth at 1 uM after 48 hrs by sulforhodamine B assay relative to control; conditions: MDA-MB-435, 48 h, read-out: Activity
[28] = tested on: OVCAR-4; assay: Cytotoxicity against human OVCAR4 cells assessed as cell growth at 1 uM after 48 hrs by sulforhodamine B assay relative to control; conditions: OVCAR-4, 48 h, read-out: Activity
[29] = tested on: UO-31; assay: Cytotoxicity against human UO31 cells assessed as cell growth at 1 uM after 48 hrs by sulforhodamine B assay relative to control; conditions: UO-31, 48 h, read-out: Activity
[30] = tested on: COLO 205; assay: Cytotoxicity against human COLO205 cells assessed as cell growth at 10 uM after 48 hrs by sulforhodamine B assay relative to control; conditions: COLO 205, 48 h, read-out: Activity
[31] = tested on: MDA-MB-435; assay: Cytotoxicity against human MDA-MB-435 cells assessed as cell growth at 10 uM after 48 hrs by sulforhodamine B assay relative to control; conditions: MDA-MB-435, 48 h, read-out: Activity
[32] = tested on: T47D; assay: Cytotoxicity against human T47D cells assessed as cell growth at 10 uM after 48 hrs by sulforhodamine B assay relative to control; conditions: read-out: Activity
[33] = tested on: MOLT-4; assay: Cytotoxicity against human MOLT4 cells assessed as cell growth at 100 uM after 48 hrs by sulforhodamine B assay relative to control; conditions: MOLT-4, 48 h, read-out: Activity
[34] = tested on: M14; assay: Cytotoxicity against human M14 cells assessed as cell growth at 100 uM after 48 hrs by sulforhodamine B assay relative to control; conditions: M14, 48 h, read-out: Activity
[35] = tested on: TK-10; assay: Cytotoxicity against human TK10 cells assessed as cell growth at 100 uM after 48 hrs by sulforhodamine B assay relative to control; conditions: TK-10, 48 h, read-out: Activity
[36] = tested on: MCF7; assay: Cytotoxicity against human MCF7 cells assessed as cell growth at 100 uM after 48 hrs by sulforhodamine B assay relative to control; conditions: MCF7, 48 h, read-out: Activity

In the case of `COc1ccc(C(=O)/C=C/c2cc(-c3cc(OC)c(OC)c(OC)c3)n[nH]2)cc1OC`, the LC50 [1] is reported as over 100 µM, the TGI [1] is reported as 1.11 µM and the TGI [2] is reported as over 100 µM. The CC50 [2] was over 100 µM, the LC50 (concentration giving 50% net cell kill) [3] was 15.7 µM and the TGI [3] was 4.59 µM. For the same molecule, the LC50 [4] was 6.7 µM, the TGI [4] was 3.78 µM and the LC50 (lethal concentration, 50% net cell kill) [5] was 6.55 µM. For the same molecule, the TGI [5] was 2.99 µM, the TGI [6] was 3.01 µM and the CC50 ([6]; read-out: LC50 (the source's name)) was 6.36 µM. For the same molecule, the LC50 [7] was 5.75 µM, the TGI [7] was 3.03 µM and the LC50 [8] was 27.6 µM. It also gave a TGI [8] of 7.82 µM, an LC50 [9] of 6 µM and a TGI [9] of 2.98 µM. The growth at 0.01 µM [10] was 101%, the growth at 0.01 µM [11] was 97% and the growth at 0.01 µM [12] was 93%. It also gave a growth at 0.01 µM [13] of 94%, a growth at 0.01 µM [14] of 98% and a growth at 0.01 µM [15] of 99%. The growth at 0.1 µM [16] was 98%, the growth at 0.1 µM [17] was 79% and the growth at 0.1 µM [18] was 106%. It also gave a growth at 0.1 µM [19] of 94%, a growth at 0.1 µM [20] of 94% and a growth at 0.1 µM [21] of 99%. The growth at 0.1 µM [22] was 98%, the growth at 1 µM [23] was 75% and the growth at 1 µM [24] was 84%. For the same molecule, the growth at 1 µM [25] was 47%, the growth at 1 µM [26] was 65% and the growth at 1 µM [27] was 70%. For the same molecule, the growth at 1 µM [28] was 70%, the growth at 1 µM [29] was 67% and the growth at 10 µM [30] was -93%. The growth at 10 µM [31] was -92%, the growth at 10 µM [32] was -42% and the growth at 100 µM [33] was -23%. For the same molecule, the growth at 100 µM [34] was -68%, the growth at 100 µM [35] was -99% and the growth at 100 µM [36] was -66%.
Work on `COc1ccc(C(=O)/C=C/c2cc(-c3cc(OC)c(OC)c(OC)c3)n[nH]2)cc1` yielded an LC50 [1] of over 100 µM, a TGI [1] of 2.49 µM and a TGI [2] of 23.9 µM. The CC50 [2] was over 100 µM, the LC50 (concentration giving 50% net cell kill) [3] was over 100 µM and the LC50 [4] was 6.48 µM. It also gave a TGI [4] of 3.4 µM, a TGI [5] of 3.47 µM and a TGI [6] of 3.03 µM. The LC50 [7] was 7.6 µM, the TGI [7] was 3.78 µM and the LC50 [8] was over 100 µM. The TGI [8] was 20.5 µM, the TGI [9] was 3.94 µM and the growth at 0.01 µM [10] was 102%. It also gave a growth at 0.01 µM [11] of 99%, a growth at 0.01 µM [12] of 101% and a growth at 0.01 µM [13] of 92%. For the same molecule, the growth at 0.01 µM [14] was 98%, the growth at 0.01 µM [15] was 99% and the growth at 0.1 µM [16] was 103%. For the same molecule, the growth at 0.1 µM [17] was 90%, the growth at 0.1 µM [18] was 101% and the growth at 0.1 µM [19] was 96%. The growth at 0.1 µM [20] was 96%, the growth at 0.1 µM [21] was 100% and the growth at 0.1 µM [22] was 93%. For the same molecule, the growth at 1 µM [23] was 89%, the growth at 1 µM [24] was 86% and the growth at 1 µM [25] was 72%. The growth at 1 µM [26] was 81%, the growth at 1 µM [27] was 92% and the growth at 1 µM [28] was 80%. For the same molecule, the growth at 1 µM [29] was 77%, the growth at 10 µM [30] was -90% and the growth at 10 µM [31] was -30%. For the same molecule, the growth at 10 µM [32] was 1%, the growth at 100 µM [33] was -4% and the growth at 100 µM [34] was -7%. It also gave a growth at 100 µM [35] of -20% and a growth at 100 µM [36] of -69%.
